The values below come from patent US20100285959A1, “HERBICIDAL MIXTURES” (priority 2006, published 2010).

The subject of one assay is kochia (KCHSC). Briefly: Test 4 field trial, postemergence. The class given is in vivo, Kochia scoparia. As to the method: (§1) A field trial was conducted to evaluate the effects of mixtures of Compound 2 with commercial herbicides on spring wheat (TRZAS, Triticum aestivum L.) and several weed species. Wheat seeds (cv. ‘AC Intrepid’) were planted in late spring season, 3.8 cm deep in a loam soil having 2.7% organic matter and a pH of 7. Plots were 6 m long by 2.5 m wide. The field was managed using no-till practices. The plots were arranged in a randomized complete block design with each treatment being replicated four times. Treatments were applied postemergence 25 days after planting using a backpack sprayer delivering a spray volume of 55 L/ha using a pressure of 276 kPa. […] Compound 2 and clodinafop treatments, alone and in combination, also included a surfactant. Weed species present in the experimental plots in sufficient quantity to be evaluated included wild oat (AVEFA, Avena fatua L.), common lambsquarters (CHEAL, Chenopodium album L.), kochia (KCHSC, Kochia scoparia (L.) Schrad.), wild buckwheat (POLCO, Polygonum convolvulus L.), Russian thistle (SASKR, Salsola kali L. ssp. ruthenica (Iljin) Soo), and field pennycress (THLAR, Thlaspi arvense L.). […] Common lambsquarters was evaluated only at 14 days after application. […] Results are the means of the four replicates.

The test system of assay [1] is common lambsquarters (CHEAL). Briefly: Test 4 field trial, postemergence. The class given is in vivo, Chenopodium album. The following applies: 14 DAA.
A further assay concerns Russian thistle (SASKR). Briefly: Test 4 field trial, postemergence. Further details: scale not given here. In kind it is in vivo, Salsola kali. The procedure:
as §1

The subject of a further assay is ducksalad (HETLI). Briefly: Test 32 greenhouse, simulated flooded rice culture. Further details: scale not given here. The following applies: postemergence to flood, 21 DAA. In kind it is in vivo, Heteranthera limosa. As to the method: A greenhouse trial was conducted to evaluate the effects of Compound 1 and isoxadifen-ethyl at different ratios in simulated flooded rice culture. Plastic pots (11-cm diameter) were partially filled with non-sterilized Tama silt loam soil containing a 15:57:28 ratio of sand, silt and clay and 2.9% organic matter. Seeds of Heteranthera limosa (ducksalad; HETLI), Cyperus difformis (smallflower umbrella sedge; CYPDI), one stand of Echinochloa crus-galli (barnyardgrass; ECHCG), and one stand of four rice seedlings (Oryza sativa cv. ‘M202’; ORYSA) were planted into a single 11-cm diameter pot for each rate and mixture of rates. To obtain this planting, C. difformis and H. limosa seeds were planted separately on the surface soil layer at particular locations within each pot. Water levels were brought to a puddled condition above the soil surface directly after planting. E. crus-galli and rice seeds were planted in cavity trays in the silt loam soil and transplanted at the 1.5 and 2.0 leaf stage, respectively. E. crus-galli and rice plants were transplanted to about 2-cm depth by transferring plugs from the cavity trays. Plantings were sequential so that these plant species all reached the 2.0- to 2.5-leaf stage in the 11-cm diameter pot at time of treatment. Plantings were established and maintained in a greenhouse with day and night temperatures of about 29.5 and 26.7° C. respectively; supplemental balanced lighting was provided to maintain a 16-hour photoperiod. Pots were fertilized periodically with a 200 ppm solution of commercial Scotts Peters® Professional® General Purpose 20-20-20 Water Soluble Fertilizer, amended to 10 ppm with a commercial iron-chelate micronutrient fertilizer. The solution was supplied at time of watering via a liquid fertilizer injector.
At treatment time, test pots were flooded to 3 cm above the soil surface and maintained at that water depth for the duration of the test. Chemical treatments were formulated in acetone and applied directly to the paddy water (i.e., postemergence to flood). Make-up volumes of acetone were added to ensure that all pots were treated with a consistent volume. Test pots were maintained in the greenhouse. A randomized complete block design was employed. Five replicates of each treatment, alone and in mixture, were used. Each species was visually evaluated for treatment effects by comparing those treated to untreated controls and rated for plant response after 21 days.

Setting [2] is: 14 DAA, Cpd 2 30 g a.i./ha alone or with clodinafop 56 or fenoxaprop 90.
The mark [3] stands for this setting: 35 DAA, Cpd 2 30 g a.i./ha alone or with clodinafop 56 or fenoxaprop 90.
Setting [4] is: 35 DAA, Cpd 2 60 g a.i./ha alone.

Regarding `COC(=O)c1nc(C2CC2)nc(N)c1Cl` [Compound 2, methyl 6-amino-5-chloro-2-cyclopropyl-4-pyrimidinecarboxylate], the “KCHSC Obs” value in the assay with kochia (KCHSC) (setting [2]) is given as 95; in the assay with kochia (KCHSC) (setting [3]), 99; with kochia (KCHSC) (setting [4]), 96. In addition, the “CHEAL Obs” value in assay [1] (Cpd 2 30 g a.i./ha alone or with clodinafop 56 or fenoxaprop 90) came to 83; in assay [1] (Cpd 2 60 g a.i./ha alone or with clodinafop 56 or fenoxaprop 90), 92. The “SASKR Obs” value in the assay with Russian thistle (SASKR) (setting [2]) is recorded as 88; in the assay on Russian thistle (SASKR) (14 DAA, Cpd 2 60 g a.i./ha alone or with clodinafop 56 or fenoxaprop 90), 91; in the assay on Russian thistle (SASKR) (setting [3]), 99; with Russian thistle (SASKR) (setting [4]), 95.

For `Nc1nc(C2CC2)nc(C(=O)O)c1Cl` [Compound 1, 6-amino-5-chloro-2-cyclopropyl-4-pyrimidinecarboxylic acid], the “HETLI Obs” value was 38 in the assay with ducksalad (HETLI) (Cpd 1 31.25 g a.i./ha), 76 in the assay with ducksalad (HETLI) (Cpd 1 62.5 g a.i./ha) and 95 in the assay on ducksalad (HETLI) (Cpd 1 125 g a.i./ha).
